The record followed here is patent US20100119479A1, “THERAPEUTIC ANTIVIRAL PEPTIDES” (INTERMUNE, INC., priority 2008, published 2010).

Assay [1] addresses T1, full-length NS3/NS4A-2 (HCV NS3 protease) (Hepatitis C virus genotype 1b, UniProt Q9WMX2).
T1 construct: Recombinant E. coli or Baculovirus full-length NS3; host or cells: E. coli or baculovirus (BV) expression
Put plainly: NS3 Inhibition Assay (NS3-NS4 protease assay, RETS1 substrate). To be noted: NS3/NS4A-2 protease. Format: biochemical. The protocol: NS3 Complex Formation with NS4A-2.
Recombinant E. coli or Baculovirus full-length NS3 was diluted to 3.33 μM with assay buffer and transferred material to an eppendorf tube and placed in a water bath in a 4° C. refrigerator. The appropriate amount of NS4A-2 diluted to […] in assay buffer was added to equal the volume of NS3 above (conversion factor—3.8 mg/272 μL assay buffer). The material was transferred to an eppendorf tube and placed in water bath in a 4° C. refrigerator.
After equilibration to 4° C., equal volumes of NS3 and NS4A-2 solutions were combined in an eppendorf tube, mix gently with a manual pipettor, and incubate mixture for 15 minutes in the 4° C. water bath. Final concentrations in the mixture are 1.67 μM NS3, 4.15 mM NS4A-2 (2485-fold molar excess NS4A-2).
After 15 minutes at 4° C., the NS3/NS4A-2 eppendorf tube was removed and place it in a room temperature water bath for 10 minutes. NS3/NS4A-2 was aliquoted at appropriate volumes and store at −80° C. (E. coli NS3 run at 2 nM in assay, aliquot at 25 μL. BV NS3 run at 3 nM in assay, aliquot at 30 μL).
Step a. Sample compounds were dissolved to 10 mM in DMSO then diluted to 2.5 mM (1:4) in DMSO. Typically, compounds were added to an assay plate at 2.5 mM concentration, yielding upon dilution a starting concentration of 50 microM in the assay inhibition curve. Compounds were serial diluted in assay buffer to provide test solutions at lower concentrations.
Step b. The E. coli. NS3/NS4A-2 was diluted to 4 nM NS3 (1:417.5 of 1.67 μM stock−18 μL1.67 μM stock+7497 μL assay buffer). The BV NS3/NS4A-2 was diluted to 6 nM NS3 (1:278.3 of 1.67 μM stock−24 μL1.67 μM stock+6655 μL assay buffer).
Step c. Using the manual multichannel pipettor, and being careful not to introduce bubbles into the plate, 50 μL assay buffer were added to wells A01-H01 of a black Costar 96-well polypropylene storage plate.
Step d. Using the manual multichannel pipettor, and being careful not to introduce bubbles into the plate, 50 μL of diluted NS3/NS4A-2 from Step b were added to wells A02-H12 of the plate in Step c.
Step e. Using the manual multichannel pipettor, and being careful not to introduce bubbles into the plate, 25 μL of the wells in drug dilution plate in Step a were transferred to corresponding wells in assay plate in Step d. The tips on the multichannel pipettor were changed for each row of compounds transferred.
Step f Using the manual multichannel pipettor, and being careful not to introduce bubbles into the plate, the contentes of the wells from the assay plate in Step e were mixed by aspirating and dispensing 35 μL of the 75 μL in each well five times. The tips on multichannel pipettor were changed for each row of wells mixed.
Step g. The plate was covered with a polystyrene plate lid, and the plate from Step f containing NS3 protease and sample compounds was pre-incubated 10 minutes at room temperature.
While plate from Step g is pre-incubating, the RETS1 substrate was diluted in a 15 mL polypropylene centrifuge tube. The RETS1 substrate was diluted to 8 μM (1:80.75 of 646 μM stock—65 μL 646 μM stock+5184 μL assay buffer).
After the plate in Step g was done pre-incubating, and using the manual multichannel, 25 μL of substrate were added to all wells on the plate. The contents of the wells of the plate were quickly mixed, as in Step f, mixing 65 μL of the 100 μL in the wells.
The plate was read in kinetic mode on the Molecular Devices SpectraMax Gemini XS plate reader. Reader settings: Read time: 30 minutes, Interval: 36 seconds, Reads: 51, Excitation λ: 335 nm, Emission λ: 495 nm, cutoff: 475 nm, Automix: off, Calibrate: once, PMT: high, Reads/well: 6, Vmax pts: 21 or 28/51 depending on length of linearity of reaction
IC50s are determined using a four parameter curve fit equation, and converted to Ki's using the following Km's: […]
Full-length E. coli NS3−2.03 μM
Full-length BV NS3−1.74 μM
where Ki=IC50/(1+[S]/Km))

Assay [2] concerns HCV sub-genomic replicon, GS4.3 (HuH-7 hepatoma cells). Put plainly: Quantitation by ELISA of NPTII in the HCV sub-genomic replicon, GS4.3. Format: cell-based. To be noted: Hepatitis C virus, GS4.3 replicon cells, 72 h incubation. From the text:
Quantitation by ELISA of the Selectable Marker Protein, Neomycin Phosphotransferase II (NPTII) in the HCV Sub-Genomic Replicon, GS4.3
The HCV sub-genomic replicon (1377/NS3-3′, accession No. AJ242652), stably maintained in HuH-7 hepatoma cells, was created by Lohmann et al. Science 285: 110-113 (1999). The replicon-containing cell culture, designated GS4.3, was obtained from Dr. Christoph Seeger of the Institute for Cancer Research, Fox Chase Cancer Center, Philadelphia, Pa.
GS4.3 cells were maintained at 37° C., 5% CO2, in DMEM (Gibco 11965-092) supplemented with L-glutamine 200 mM (100×) (Gibco25030-081), non-essential amino acids (NEAA)(Biowhittaker 13-114E), heat-inactivated (HI) Fetal Bovine Serum(FBS)(Hyclone SH3007.03) and 750 μg/mL geneticin (G418)(Gibco 10131-035). Cells were sub-divided 1:3 or 4 every 2-3 days.
24 h prior to the assay, GS4.3 cells were collected, counted, and plated in 96-well plates (Costar 3585) at 7500 cells/well in […] standard maintenance medium (above) and incubated in the conditions above. To initiate the assay, culture medium was removed, cells were washed once with PBS (Gibco 10010-023) and 90 μl Assay Medium (DMEM, L-glutamine, NEAA, 10% HI FBS, no G418) was added. Inhibitors were made as a 10× stock in Assay Medium, (3-fold dilutions from 10 μM to […] final concentration, final DMSO concentration 1%), […] were added to duplicate wells, plates were rocked to mix, and incubated as above for 72 h.
An NPTII Elisa kit was obtained from AGDIA, Inc. (Compound direct ELISA test system for Neomycin Phosphotransferase II, PSP 73000/4800). Manufacturer's instructions were followed, with some modifications. 10×PEB-1 lysis buffer was made up to include 500 μM PMSF (Sigma P7626, 50 mM stock in isopropanol). After 72 h incubation, cells were washed once with PBS and […] PEB-1 with PMSF was added per well. Plates were agitated vigorously for 15 minutes, room temperature, then frozen at −70° C. Plates were thawed, lysates were mixed thoroughly, and 100 μl were applied to an NPTII Elisa plate. A standard curve was made. Lysate from DMSO-treated control cells was pooled, serially diluted with PEB-1 with PMSF, and applied to duplicate wells of the ELISA plate, in a range of initial lysate amount of 150 μL-2.5 μL. In addition, 100 μL buffer alone was applied in duplicate as a blank. Plates were sealed and gently agitated at room temperature for 2 h. Following capture incubation, the plates were washed 5×300 μL with PBS-T (0.5% Tween-20, PBS-T was supplied in the ELISA kit). For detection, a 1× dilution of enzyme conjugate diluent MRS-2 (5×) was made in PBS-T, into which 1:100 dilutions of enzyme conjugates A and B were added, as per instructions. Plates were resealed, and incubated with agitation, covered, room temperature, for 2 h. The washing was then repeated and 100 μL, of room temperature TMB substrate was added. After approximately 30 minutes incubation (room temperature, agitation, covered), the reaction was stopped with 50 μL, 3M sulfuric acid. Plates were read at 450 nm on a Molecular Devices Versamax plate reader.
Inhibitor effect was expressed as a percentage of DMSO-treated control signal, and inhibition curves were calculated using a 4-parameter equation: y=A+((B−A)/(1+((C/x)̂D))), where C is half-maximal activity or EC50.

T1 sequence (Q9WMX2 1027-1657): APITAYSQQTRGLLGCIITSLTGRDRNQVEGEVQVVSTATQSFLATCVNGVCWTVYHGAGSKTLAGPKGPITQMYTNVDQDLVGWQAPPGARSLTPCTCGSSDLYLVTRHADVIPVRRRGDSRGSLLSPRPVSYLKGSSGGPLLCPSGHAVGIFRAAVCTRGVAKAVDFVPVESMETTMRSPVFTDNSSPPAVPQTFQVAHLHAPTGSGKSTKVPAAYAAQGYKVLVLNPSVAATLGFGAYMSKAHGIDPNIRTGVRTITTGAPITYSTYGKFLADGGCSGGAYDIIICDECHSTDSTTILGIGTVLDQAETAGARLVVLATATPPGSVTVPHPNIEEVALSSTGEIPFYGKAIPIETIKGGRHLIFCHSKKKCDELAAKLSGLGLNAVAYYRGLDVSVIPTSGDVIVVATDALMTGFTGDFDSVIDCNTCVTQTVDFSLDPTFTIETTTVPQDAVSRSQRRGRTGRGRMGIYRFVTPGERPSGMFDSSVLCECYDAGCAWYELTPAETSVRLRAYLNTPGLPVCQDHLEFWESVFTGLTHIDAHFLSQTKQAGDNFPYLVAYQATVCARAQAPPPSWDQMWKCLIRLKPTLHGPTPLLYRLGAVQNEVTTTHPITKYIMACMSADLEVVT
T1 sequence (Q9WMX2 1658-1711): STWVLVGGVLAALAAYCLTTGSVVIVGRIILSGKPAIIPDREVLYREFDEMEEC

What is called IC50 is the point on the concentration scale where inhibition reaches its midpoint. In general, EC50 refers to the concentration needed to bring the measured effect to its halfway point. A higher EC50 goes with lower potency in that assay. As for `C=C[C@@H]1C[C@]1(NC(=O)[C@@H]1C[C@@H](Oc2cc(-c3nc(C(C)C)cs3)nc3c(C)c(OC)ccc23)CN1C(=O)[C@@H](Nc1cccc(C(F)(F)F)c1)C(C)(C)C)C(=O)NS(=O)(=O)C1(C)CC1` [Compound 302], the 50% inhibitory concentration (IC50) in assay [1] is < 100 nM. In addition, the 50% effective concentration (EC50) in assay [2] is < 100 nM.
Regarding `C=C[C@@H]1C[C@]1(NC(=O)[C@@H]1C[C@@H](Oc2cc(-c3nc(C(C)C)cs3)nc3c(C)c(OC)ccc23)CN1C(=O)[C@@H](Nc1ccc(F)c(C(F)(F)F)c1)C(C)(C)C)C(=O)NS(=O)(=O)C1CC1` [Compound 306], the concentration for half-maximal inhibition (IC50) in assay [1] was < 100 nM. In addition, the EC50 in assay [2] is < 100 nM.
As for `CC[C@@H]1C[C@]1(NC(=O)[C@@H]1CC(Oc2cc(-c3nc(C(C)C)cs3)nc3c(C)c(OC)ccc23)CN1C(=O)[C@@H](Nc1cccc(C(F)(F)F)c1)C(C)(C)C)C(=O)NS(=O)(=O)C1(C)CC1` (some centres unmarked) [Compound 336], the IC50 in assay [1] was < 100 nM. Besides, in assay [2], the EC50 was < 100 nM.
For the molecule `CCOC(=O)c1cccc(N[C@H](C(=O)N2C[C@H](OC(=O)N3Cc4cccc(F)c4C3)C[C@H]2C(=O)N[C@]2(C(=O)NS(=O)(=O)C3CC3)C[C@H]2CC)C(C)(C)C)c1` [Compound 4], in assay [1], the IC50 was < 100 nM. The concentration for a half-maximal effect (EC50) in assay [2] lay within 100 to 1000 nM.
Regarding `C=C[C@@H]1C[C@]1(NC(=O)[C@@H]1C[C@@H](Oc2nccc3ccccc23)CN1C(=O)[C@@H](Nc1cc(F)cc(C(F)(F)F)c1)C(C)(C)C)C(=O)NS(=O)(=O)C1(C)CC1` [Compound 287], the 50% inhibitory concentration (IC50) in assay [1] is < 100 nM. For the same molecule, the EC50 in assay [2] was < 100 nM.
As to `C=C[C@@H]1C[C@]1(NC(=O)[C@@H]1C[C@@H](Oc2nccc3ccccc23)CN1C(=O)[C@@H](Nc1cc(F)cc(C(F)(F)F)c1)C(C)(C)C)C(=O)NS(=O)(=O)C1CC1` [Compound 7], in assay [1], the IC50 is < 100 nM. Further, in assay [2], the EC50 was < 100 nM.
Regarding `CC[C@@H]1C[C@]1(NC(=O)[C@@H]1C[C@@H](Oc2nc3ccccc3n2CC)CN1C(=O)[C@@H](Nc1cccc(C(F)(F)F)c1)C(C)(C)C)C(=O)NS(=O)(=O)C1(C)CC1` [Compound 232], the half-inhibitory concentration (IC50) in assay [1] was < 100 nM. Moreover, the half-maximal effective concentration (EC50) in assay [2] was < 100 nM.
For the molecule `CC[C@@H]1C[C@]1(NC(=O)[C@@H]1C[C@@H](OC(=O)N2Cc3cccc(Cl)c3C2)CN1C(=O)[C@@H](Nc1ccc(F)c(C(F)(F)F)c1)C(C)(C)C)C(=O)NS(=O)(=O)C1(C)CC1` [Compound 284], the IC50 in assay [1] was < 100 nM. In addition, in assay [2], the concentration for a half-maximal effect (EC50) is < 100 nM.
With `CC[C@@H]1C[C@]1(NC(=O)[C@@H]1C[C@@H](Oc2cc(-c3nc(C(C)C)cs3)nc3c(C)c(OC)ccc23)CN1C(=O)[C@@H](Nc1ccc(F)c(C(F)(F)F)c1)C(C)(C)C)C(=O)NS(=O)(=O)C1CC1` [Compound 308], in assay [1], the half-inhibitory concentration (IC50) was < 100 nM. In assay [2], the 50% effective concentration (EC50) is < 100 nM.
For the molecule `CC(C)(C)[C@H](Nc1cc(F)cc(C(F)(F)F)c1)C(=O)N1C[C@H](OC(=O)N2Cc3cccc(Cl)c3C2)C[C@H]1C(=O)N[C@]1(C(=O)NS(=O)(=O)C2(C)CC2)C[C@H]1C1CC1` [Compound 298], the 50% inhibitory concentration (IC50) in assay [1] was < 100 nM. In addition, in assay [2], the EC50 was < 100 nM.
On to `CC[C@@H]1C[C@]1(NC(=O)[C@@H]1C[C@@H](OC(=O)N2Cc3cccc(F)c3C2)CN1C(=O)[C@@H](Nc1cccc(COCC2(C)COC2)c1)C(C)(C)C)C(=O)NS(=O)(=O)C1CC1` [Compound 14], for which, in assay [1], the half-maximal inhibitory concentration (IC50) is < 100 nM. For the same molecule, the concentration giving a half-maximal response (EC50) in assay [2] is 100 to 1000 nM.
For `CC[C@@H]1C[C@]1(NC(=O)[C@@H]1C[C@@H](OC(=O)N2Cc3cccc(F)c3C2)CN1C(=O)[C@@H](Nc1cccc(C(=O)N2CCNCC2)c1)C(C)(C)C)C(=O)NS(=O)(=O)C1CC1` [Compound 9], in that order: < 100 nM and > 1000 nM.
As for `CC(C)(C)[C@H](Nc1cccc(OC(F)(F)F)c1)C(=O)N1C[C@H](OC(=O)N2Cc3cccc(Cl)c3C2)C[C@H]1C(=O)N[C@]1(C(=O)NS(=O)(=O)C2(C)CC2)C[C@H]1C1CC1` [Compound 304], the half-inhibitory concentration (IC50) in assay [1] was < 100 nM. Besides, the 50% effective concentration (EC50) in assay [2] was < 100 nM.
As for `CC[C@@H]1C[C@]1(NC(=O)[C@@H]1C[C@@H](OC(=O)N2Cc3cccc(F)c3C2)CN1C(=O)[C@@H](Nc1cccc(OC(F)(F)F)c1)C(C)(C)C)C(=O)NS(=O)(=O)C1(C)CC1` [Compound 289], the half-inhibitory concentration (IC50) in assay [1] is < 100 nM. Also, in assay [2], the EC50 was < 100 nM.
As for `CC[C@@H]1C[C@]1(NC(=O)[C@@H]1CC(Oc2cc(-c3nc(C(C)C)cs3)nc3c(C)c(OC)ccc23)CN1C(=O)[C@@H](Nc1cccc(C(F)(F)F)c1)C(C)(C)C)C(=O)NS(=O)(=O)C1CC1` (some centres unmarked) [Compound 335], the concentration for half-maximal inhibition (IC50) in assay [1] is < 100 nM. For the same molecule, in assay [2], the EC50 is < 100 nM.
For the molecule `CC[C@@H]1C[C@]1(NC(=O)[C@@H]1C[C@@H](Oc2cc(-c3nc(C(C)C)cs3)nc3c(C)c(OC)ccc23)CN1C(=O)[C@@H](Nc1ccccc1)C(C)(C)C)C(=O)NS(=O)(=O)C1CC1` [Compound 352], the IC50 in assay [1] is < 100 nM. Also, the concentration for a half-maximal effect (EC50) in assay [2] was < 100 nM.
